What all share (format): in vivo
Data set [1] relates to Green Peach Aphid (Myzus persicae). Kind of data set: Bioassay on Green Peach Aphid (GPA), foliar spray on cabbage seedlings. The note with it: 72 h, 200 ppm foliar spray on cabbage seedlings, three days, Abbott corrected % control, read-out: GPA % Control (or Mortality) rating. The method, then: Certain molecules disclosed in this document were tested against GPA using procedures described in the following example. In the reporting of the results, the “GPA & YFM Rating Table” was used (See Table Section).
Cabbage seedlings grown in 3-inch pots, with 2-3 small (3-5 cm) true leaves, were used as test substrate. The seedlings were infested with 20-50 GPA (wingless adult and nymph stages) one day prior to chemical application. Four pots with individual seedlings were used for each treatment. Test molecules (2 mg) were dissolved in 2 mL of acetone/methanol (1:1) solvent, forming stock solutions of 1000 ppm test molecule. The stock solutions were diluted 5× with 0.025% Tween 20 in water to obtain the solution at 200 ppm test molecule. A hand-held aspirator-type sprayer was used for spraying a solution to both sides of […] leaves until runoff. Reference plants (solvent check) were sprayed with the diluent only containing 20% by volume of acetone/methanol (1:1) solvent. Treated plants were held in a holding room for three days at approximately 25° C. and ambient relative humidity (RH) prior to grading. Evaluation was conducted by counting the number of live aphids per plant under a microscope. Percent control was measured using Abbott's correction formula (W. S. Abbott, “A Method of Computing the Effectiveness of an Insecticide” J. Econ. Entomol. 18 (1925), pp. 265-267) as follows. Corrected % Control=100*(X−Y)/X where X=No. of live aphids on solvent check plants and Y=No. of live aphids on treated plants. The results are indicated in the table entitled “Table ABC: Biological Results” (See Table Section).

Data set [2] deals with Beet Armyworm (Spodoptera exigua). Put plainly: Bioassay on Beet Armyworm (BAW), 128-well diet tray assay. The note with it: for mortality at 50 µg/cm2: Spodoptera exigua, 168 h, 50 μg/cm^2 on artificial diet, second instar larvae, five to seven days, read-out: BAW % Control (or Mortality) rating.
Data set [3] concerns Cabbage Looper (Trichoplusia ni). Put plainly: Bioassay on Cabbage Looper (CL), 128-well diet tray assay. As to conditions: 168 h, 50 μg/cm^2 on artificial diet, second instar larvae, five to seven days, read-out: CL % Control (or Mortality) rating. Put shortly:
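Second-instar larvae (1–5 per well) placed on artificial diet surface-treated with 50 μg/cm^2 test molecule applied in 90:10 acetone-water and dried. Held at 25° C., 14:10 light-dark, for five to seven days. Percent mortality scored per well and averaged over eight wells.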

Data set [4] relates to Yellow Fever Mosquito (Aedes aegypti). As to conditions: about 1 day-old larvae, 3 days, scored on mortality. The method, then:
Certain molecules disclosed in this document were tested against YFM using procedures described in the following paragraph. In the reporting of the results, the “GPA & YFM Rating Table” was used (See Table Section).
Master plates containing 400 μg of a molecule dissolved in 100 μL of dimethyl sulfoxide (DMSO) (equivalent to a 4000 ppm solution) are used. A master plate of assembled molecules contains 15 μL per well. To this plate, 135 μL of a 90:10 water/acetone mixture is added to each well. A robot (Biomek® NXP Laboratory Automation Workstation) is programmed to dispense 15 μL aspirations from the master plate into an empty 96-well shallow plate (“daughter” plate). There are 6 reps (“daughter” plates) created per master. The created “daughter” plates are then immediately infested with YFM larvae.
The day before plates are to be treated, mosquito eggs are placed in Millipore water containing liver powder to begin hatching (4 g. into 400 mL). After the “daughter” plates are created using the robot, they are infested with 220 μL of the liver powder/larval mosquito mixture (about 1 day-old larvae). After plates are infested with mosquito larvae, a non-evaporative lid is used to cover the plate to reduce drying. Plates are held at room temperature for 3 days prior to grading. After 3 days, each well is observed and scored based on mortality. The results are indicated in the table entitled “Table ABC: Biological Results” (See Table Section).

On to `O=C(NNc1ncccn1)c1ccc(/C(F)=C/C(c2cc(Cl)c(F)c(Cl)c2)C(F)(F)F)cc1C(F)(F)F` (stereo not shown) [F4, (Z)-4-(3-(3,5-Dichloro-4-fluorophenyl)-1,4,4,4-tetrafluorobut-1-en-1-yl)-N′-(pyrimidin-2-yl)-2-(trifluoromethyl)benzohydraziderazide], for which the mortality at 200 ppm in data set [1] was in the range of 0 to 80%. The mortality at 50 µg/cm2 in data set [2] and in data set [3] was 50 to 100% each time.
On to `O=C(NNc1ncccn1)c1ccc(/C(F)=C/C(c2cc(Cl)c(Cl)c(Cl)c2)C(F)(F)F)cc1C(F)(F)F` (stereo not shown) [F97, (Z)—N′-(pyrimidin-2-yl)-4-(1,4,4,4-tetrafluoro-3-(3,4,5-trichlorophenyl)but-1-en-1-yl)-2-(trifluoromethyl)benzohydrazide], for which the mortality at 200 ppm in data set [1] was in the range of 80 to 100%. Besides, the “BAW (Table CD-1)” value in data set [2] (0.05 μg/cm^2), in data set [2] (5.0 μg/cm^2) and in data set [2] (50 μg/cm^2) was 100 in each case. In addition, the mortality at 50 µg/cm2 in data set [2] and in data set [3] was 50 to 100% throughout.
Turning to `C#CCN(C(=O)c1ccc(/C(F)=C/C(c2cc(Cl)c(Cl)c(Cl)c2)C(F)(F)F)cc1C(F)(F)F)N(C)c1ncccn1` (stereo not shown) [F180, (Z)—N′-Methyl-N-(prop-2-yn-1-yl)-N′-(pyrimidin-2-yl)-4-(1,4,4,4-tetrafluoro-3-(3,4,5-trichlorophenyl)but-1-en-1-yl)-2-(trifluoromethyl)benzohydrazide], the mortality at 200 ppm in data set [1] was in the range of 0 to 80%. Further, the mortality at 50 µg/cm2 in data set [2] and in data set [3] was 50 to 100% throughout. Moreover, the “YFM % Control (or Mortality) rating” value in data set [4] is given as “A (80-100)”.
As to `CCN(NC(=O)c1ccc(/C(F)=C/C(c2cc(Cl)c(Cl)c(Cl)c2)C(F)(F)F)cc1C(F)(F)F)c1ncccn1` (stereo not shown) [F130, (Z)—N′-Ethyl-N′-(pyrimidin-2-yl)-4-(1,4,4,4-tetrafluoro-3-(3,4,5-trichlorophenyl)but-1-en-1-yl)-2-(trifluoromethyl)benzohydrazide], the mortality at 50 µg/cm2 in data set [2] and in data set [3] was 50 to 100% in each case. In data set [4], the “YFM % Control (or Mortality) rating” value is “A (80-100)”.
Take `O=C(NNc1ccccc1)c1ccc(/C(F)=C/C(c2cc(Cl)c(Cl)c(Cl)c2)C(F)(F)F)cc1C(F)(F)F` (stereo not shown) [F133, (Z)—N′-Phenyl-4-(1,4,4,4-tetrafluoro-3-(3,4,5-trichlorophenyl)but-1-en-1-yl)-2-(trifluoromethyl)benzohydrazide]: the mortality at 50 µg/cm2 in data set [2] and in data set [3] was 50 to 100% throughout. Besides, the “YFM % Control (or Mortality) rating” value in data set [4] was “A (80-100)”.
On to `O=C(NNc1c(F)cccc1Cl)c1ccc(/C(F)=C/C(c2cc(Cl)c(Cl)c(Cl)c2)C(F)(F)F)cc1C(F)(F)F` (stereo not shown) [F1, (Z)—N′-(2-chloro-6-fluorophenyl)-4-(1,4,4,4-tetrafluoro-3-(3,4,5-trichlorophenyl)but-1-en-1-yl)-2-(trifluoromethyl)benzohydrazide], for which the mortality at 50 µg/cm2 in data set [2] and in data set [3] was 50 to 100% each time. Also, the “YFM % Control (or Mortality) rating” value in data set [4] was “A (80-100)”.
For `O=C(Nn1ccnc1)c1ccc(/C(F)=C/C(c2cc(Cl)c(Cl)c(Cl)c2)C(F)(F)F)cc1C(F)(F)F` (stereo not shown) [F10, (Z)—N-(1H-Imidazol-1-yl)-4-(1,4,4,4-tetrafluoro-3-(3,4,5-trichlorophenyl)but-1-en-1-yl)-2-(trifluoromethyl)benzamide], the mortality at 200 ppm in data set [1] is 0 to 80%. The mortality at 50 µg/cm2 in data set [2] and in data set [3] was 50 to 100% in each case.
As for `COc1ccc(NNC(=O)c2ccc(/C(F)=C/C(c3cc(Cl)c(Cl)c(Cl)c3)C(F)(F)F)cc2C(F)(F)F)cc1` (stereo not shown) [F126, (Z)—N′-(4-Methoxyphenyl)-4-(1,4,4,4-tetrafluoro-3-(3,4,5-trichlorophenyl)but-1-en-1-yl)-2-(trifluoromethyl)benzohydrazide], the mortality at 50 µg/cm2 in data set [2] and in data set [3] was 50 to 100% in each case. In addition, in data set [4], the “YFM % Control (or Mortality) rating” value is recorded as “A (80-100)”.
For the compound `CN(NC(=O)c1ccc(/C(F)=C/C(c2ccc(Cl)c(Cl)c2)C(F)(F)F)cc1C(F)(F)F)c1ncccn1` (stereo not shown) [F8, (Z)-4-(3-(3,4-Dichlorophenyl)-1,4,4,4-tetrafluorobut-1-en-1-yl)-N′-methyl-N′-(pyrimidin-2-yl)-2-(trifluoromethyl)benzohydrazideazide], the mortality at 50 µg/cm2 in data set [2] and in data set [3] was 50 to 100% throughout. In addition, the “YFM % Control (or Mortality) rating” value in data set [4] is reported as “A (80-100)”.
Take `O=C(NNc1ncccn1)c1ccc(/C(F)=C/C(c2cc(Cl)cc(Cl)c2)C(F)(F)F)cc1C(F)(F)F` (stereo not shown) [F56, (Z)-4-(3-(3,5-Dichlorophenyl)-1,4,4,4-tetrafluorobut-1-en-1-yl)-N′-(pyrimidin-2-yl)-2-(trifluoromethyl)benzohydrazide]: the mortality at 50 µg/cm2 in data set [2] and in data set [3] was 50 to 100% throughout. In data set [4], the “YFM % Control (or Mortality) rating” value was “A (80-100)”.
As to `CN(NC(=O)c1ccc(/C(F)=C/C(c2cc(Cl)c(Cl)c(Cl)c2)C(F)(F)F)cc1C(F)(F)F)c1ccccc1` (stereo not shown) [F11, (Z)—N′-Methyl-N′-phenyl-4-(1,4,4,4-tetrafluoro-3-(3,4,5-trichlorophenyl)but-1-en-1-yl)-2-(trifluoromethyl)benzohydrazide], the mortality at 50 µg/cm2 in data set [2] and in data set [3] was 50 to 100% in each case. The “YFM % Control (or Mortality) rating” value in data set [4] is recorded as “A (80-100)”.
Consider `Cc1csc(N(N)C(=O)c2ccc(/C(F)=C/C(c3cc(Cl)c(Cl)c(Cl)c3)C(F)(F)F)cc2C(F)(F)F)n1` (stereo not shown) [F109, (Z)—N-(4-Methylthiazol-2-yl)-4-(1,4,4,4-tetrafluoro-3-(3,4,5-trichlorophenyl)but-1-en-1-yl)-2-(trifluoromethyl)benzohydrazide], for which the mortality at 50 µg/cm2 in data set [2] and in data set [3] was 50 to 100% in each case. Moreover, in data set [4], the “YFM % Control (or Mortality) rating” value was “A (80-100)”.
`O=C(NN1CCS(=O)(=O)CC1)c1ccc(/C(F)=C/C(c2cc(Cl)c(Cl)c(Cl)c2)C(F)(F)F)cc1C(F)(F)F` (stereo not shown) [F122, (Z)—N-(1,1-dioxidothiomorpholino)-4-(1,4,4,4-tetrafluoro-3-(3,4,5-trichlorophenyl)but-1-en-1-yl)-2-(trifluoromethyl)benzamide]: the mortality at 50 µg/cm2 in data set [2] and in data set [3] was 50 to 100% throughout. Also, the “YFM % Control (or Mortality) rating” value in data set [4] was “D (No activity noticed in this bioassay)”.
With `CN(NC(=O)c1ccc(/C(F)=C/C(c2cc(Cl)c(Cl)c(Cl)c2)C(F)(F)F)cc1C(F)(F)F)c1ncccn1` (stereo not shown) [F71, (Z)—N′-Methyl-N′-(pyrimidin-2-yl)-4-(1,4,4,4-tetrafluoro-3-(3,4,5-trichlorophenyl)but-1-en-1-yl)-2-(trifluoromethyl)benzohydrazide], in data set [1], the mortality at 200 ppm is 80 to 100%. For the same compound, the mortality at 50 µg/cm2 in data set [2] and in data set [3] was 50 to 100% throughout.
For the compound `O=C(NNc1ncccc1Cl)c1ccc(/C(F)=C/C(c2cc(Cl)c(Cl)c(Cl)c2)C(F)(F)F)cc1C(F)(F)F` (stereo not shown) [F99, (Z)—N′-(3-Chloropyridin-2-yl)-4-(1,4,4,4-tetrafluoro-3-(3,4,5-trichlorophenyl)but-1-en-1-yl)-2-(trifluoromethyl)benzohydrazide], the mortality at 50 µg/cm2 in data set [2] and in data set [3] was 50 to 100% in each case. Also, the “YFM % Control (or Mortality) rating” value in data set [4] was “A (80-100)”.
Turning to `CNN(CC(=O)NCC(F)(F)F)C(=O)c1ccc(/C(F)=C/C(c2cc(Cl)c(Cl)c(Cl)c2)C(F)(F)F)cc1C(F)(F)F` (stereo not shown) [F183, (Z)-2-(2-Methyl-1-(4-(1,4,4,4-tetrafluoro-3-(3,4,5-trichlorophenyl)but-1-en-1-yl)-2-(trifluoromethyl)benzoyl)hydrazinyl)-N-(2,2,2-trifluoroethyl)acetamide], the mortality at 50 µg/cm2 in data set [2] and in data set [3] was 50 to 100% in each case. The “YFM % Control (or Mortality) rating” value in data set [4] is “A (80-100)”.

As usually defined, the mortality is the share of the test organisms that died.
